Measured values published in the CheMixHub viscosity set.
± gives the uncertainty stated by the source.

Assay: xn = mol fraction of the nth substance listed
Conditions: 101 kPa

CCCOC(=O)c1ccccc1 + CCCCCCCCCCCCCC
Conditions | viscosity [mPa·s]
298.15 K, x2 = 0.0348 | 2.302 ± 0.073
298.15 K, x2 = 0.0666 | 2.257 ± 0.072
298.15 K, x2 = 0.0955 | 2.215 ± 0.071
298.15 K, x2 = 0.1309 | 2.171 ± 0.069
298.15 K, x2 = 0.1608 | 2.137 ± 0.068
298.15 K, x2 = 0.1965 | 2.099 ± 0.067
298.15 K, x2 = 0.2367 | 2.06 ± 0.066
298.15 K, x2 = 0.2722 | 2.029 ± 0.065
298.15 K, x2 = 0.307 | 2.003 ± 0.064
298.15 K, x2 = 0.3527 | 1.974 ± 0.063
298.15 K, x2 = 0.401 | 1.948 ± 0.063
298.15 K, x2 = 0.4477 | 1.928 ± 0.062
298.15 K, x2 = 0.4973 | 1.916 ± 0.062
298.15 K, x2 = 0.549 | 1.906 ± 0.062
298.15 K, x2 = 0.5955 | 1.905 ± 0.062
298.15 K, x2 = 0.6516 | 1.908 ± 0.062
298.15 K, x2 = 0.7159 | 1.921 ± 0.062
298.15 K, x2 = 0.7647 | 1.934 ± 0.063
298.15 K, x2 = 0.8531 | 1.97 ± 0.064
308.15 K, x2 = 0.0488 | 1.84 ± 0.059
308.15 K, x2 = 0.0735 | 1.808 ± 0.058
308.15 K, x2 = 0.1091 | 1.77 ± 0.056
308.15 K, x2 = 0.148 | 1.734 ± 0.055
308.15 K, x2 = 0.1734 | 1.714 ± 0.055
308.15 K, x2 = 0.215 | 1.682 ± 0.054
308.15 K, x2 = 0.2514 | 1.659 ± 0.053
308.15 K, x2 = 0.2896 | 1.639 ± 0.053
308.15 K, x2 = 0.3376 | 1.62 ± 0.052
308.15 K, x2 = 0.3703 | 1.608 ± 0.052
308.15 K, x2 = 0.4154 | 1.596 ± 0.051
308.15 K, x2 = 0.4616 | 1.587 ± 0.051
308.15 K, x2 = 0.5232 | 1.58 ± 0.051
308.15 K, x2 = 0.572 | 1.58 ± 0.051
308.15 K, x2 = 0.6124 | 1.582 ± 0.051
308.15 K, x2 = 0.6769 | 1.588 ± 0.051
308.15 K, x2 = 0.7367 | 1.601 ± 0.052
308.15 K, x2 = 0.8128 | 1.623 ± 0.053
308.15 K, x2 = 0.8907 | 1.652 ± 0.054
318.15 K, x2 = 0.0558 | 1.521 ± 0.049
318.15 K, x2 = 0.0578 | 1.517 ± 0.048
318.15 K, x2 = 0.0908 | 1.491 ± 0.048
318.15 K, x2 = 0.1258 | 1.464 ± 0.047
318.15 K, x2 = 0.159 | 1.442 ± 0.046
318.15 K, x2 = 0.1985 | 1.418 ± 0.045
318.15 K, x2 = 0.2344 | 1.399 ± 0.045
318.15 K, x2 = 0.2777 | 1.379 ± 0.044
318.15 K, x2 = 0.3162 | 1.364 ± 0.044
318.15 K, x2 = 0.3637 | 1.348 ± 0.043
318.15 K, x2 = 0.4065 | 1.337 ± 0.043
318.15 K, x2 = 0.4576 | 1.328 ± 0.043
318.15 K, x2 = 0.5191 | 1.321 ± 0.043
318.15 K, x2 = 0.5622 | 1.319 ± 0.043
318.15 K, x2 = 0.6149 | 1.32 ± 0.043
318.15 K, x2 = 0.68 | 1.325 ± 0.043
318.15 K, x2 = 0.7358 | 1.332 ± 0.043
318.15 K, x2 = 0.8096 | 1.347 ± 0.044
318.15 K, x2 = 0.9298 | 1.382 ± 0.045

Oc1ccccc1Cl + CC(C)=O
Conditions | viscosity [mPa·s]
293.15 K, x1 = 0.09296 | 0.475 ± 0.005
293.15 K, x1 = 0.1779 | 0.611 ± 0.006
293.15 K, x1 = 0.3108 | 0.992 ± 0.01
293.15 K, x1 = 0.4089 | 1.376 ± 0.014
293.15 K, x1 = 0.5253 | 2.051 ± 0.021
293.15 K, x1 = 0.6914 | 3.17 ± 0.04
293.15 K, x1 = 0.8336 | 3.91 ± 0.05
298.15 K, x1 = 0.101 | 0.442 ± 0.011
298.15 K, x1 = 0.2004 | 0.644 ± 0.013
298.15 K, x1 = 0.2997 | 0.857 ± 0.014
298.15 K, x1 = 0.4006 | 1.217 ± 0.017
298.15 K, x1 = 0.5 | 1.666 ± 0.022
298.15 K, x1 = 0.5999 | 2.19 ± 0.027
298.15 K, x1 = 0.6997 | 2.712 ± 0.032
298.15 K, x1 = 0.7988 | 3.086 ± 0.036
298.15 K, x1 = 0.9003 | 3.303 ± 0.038
303.15 K, x1 = 0.09296 | 0.419 ± 0.005
303.15 K, x1 = 0.1779 | 0.569 ± 0.006
303.15 K, x1 = 0.3108 | 0.893 ± 0.009
303.15 K, x1 = 0.4089 | 1.199 ± 0.012
303.15 K, x1 = 0.5253 | 1.684 ± 0.017
303.15 K, x1 = 0.6914 | 2.4 ± 0.03
303.15 K, x1 = 0.8336 | 2.85 ± 0.03
313.15 K, x1 = 0.09296 | 0.382 ± 0.004
313.15 K, x1 = 0.1779 | 0.508 ± 0.005
313.15 K, x1 = 0.3108 | 0.777 ± 0.008
313.15 K, x1 = 0.4089 | 1.019 ± 0.01
313.15 K, x1 = 0.5253 | 1.369 ± 0.014
313.15 K, x1 = 0.6914 | 1.886 ± 0.019
313.15 K, x1 = 0.8336 | 2.165 ± 0.022
323.15 K, x1 = 0.09296 | 0.3515 ± 0.0039
323.15 K, x1 = 0.1779 | 0.465 ± 0.005
323.15 K, x1 = 0.3108 | 0.687 ± 0.007
323.15 K, x1 = 0.4089 | 0.893 ± 0.009
323.15 K, x1 = 0.5253 | 1.154 ± 0.011
323.15 K, x1 = 0.6914 | 1.527 ± 0.015
323.15 K, x1 = 0.8336 | 1.735 ± 0.017
